Values quoted from earlier work, collected in patent US9855261B2, “Polymeric compound having camptothecin compound and anti-cancer effect enhancer bound thereto, and use of same” (priority 2012, dated 2018).

Details: of its dose

CC[C@@]1(O)C(=O)OCc2c1cc1n(c2=O)Cc2cc3c(CN(C)C)c(O)ccc3nc2-1 [Topotecan]
share of dose excreted renally: 20-40%
